Test results: publication PMC5887109, “Unravelling the Molecular Determinants of Bee Sensitivity to Neonicotinoid Insecticides” (Current Biology, 2018)
One block for each compound: values may come before it.

Columns and labels:
honeybee = conditions: cited from earlier work
CYP9Q4 [1] = target: T1, CYP9Q4 (Bombus terrestris, UniProt A0A9B0BBT5); test: Activity of recombinant CYP9Q4 against fluorescent coumarin model substrates; assay type: biochemical, B. terrestris
Method: (§1) The activity of individual A. mellifera and B. terrestris recombinant P450s were tested against seven fluorescent model substrates (all purchased from Sigma); 7-methoxy-coumarin (MC), 7-Methoxy-4-(tri-fluoromethyl)-coumarin (MFC), 7-ethoxy-coumarin (EC), 7-benzyloxy-4-(trifluoromethyl)-coumarin (BFC), 7-ethoxy-4-trifluoro-methylcoumarin (EFC), 7-benzyloxymethoxy-4-trifluoromethyl coumarin (BOMFC), and 7-p-methoxy-benzyloxy-4-trifluoro coumarin (MOBFC). Assays were carried out in black flat-bottomed 96-well plates in a 100 μL reaction containing 2 pmol of P450 per 50 μg of protein (B. terrestris) or 50 μg/well (A. mellifera), 1 mM of NADPH (Sigma) and […] of a model substrate (Sigma). Three replicates were carried out for each data point. P450s incubated without NADPH and wells containing only potassium phosphate buffer served as controls. Samples were incubated at 25°C for 45 min (B. terrestris) or 30°C for 30 min (A. mellifera). Data were recorded using a SpectraMax Gemini XPS (B. terrestris) or a SpectraMax M2 (A. mellifera) at the excitation/emission wavelength suitable for each model substrate (MC, EC at 390-465, BFC, MFC at 410-535, EFC at 410-510 and BOMFC and MOBFC at 405-510 nm). As these substrates have a similar emission wavelength to NADPH (460 nm) the reaction was terminated prior to measurement by the addition of 100μL of a stop solution (25% DMSO, 0.05 M Tris/HCL pH10, 5 mM glutathione oxidised, and 0.2 U glutathione reductase). The reactions were incubated at 25°C (B. terrestris) or 30°C (A. mellifera) for a further 15 min and the data were recorded at the required excitation/emission wavelengths stated above. 7-hydroxy-4-(trifluoromethyl)-coumarin (HFC) (Sigma) was used to generate a standard curve for model substrates BFC, EFC, MFC, MOBFC, and BOMFC and 7-hydroxycoumarin (HC) (Sigma) for model substrates EC and MC. […] The florescence was measured as above at the corresponding wavelengths for each model substrate. […] This was then subtracted from the average fluorescence measurement of each P450 along with the average control measurements.

CYP9Q3 [2] = target: T2, CYP9Q3 (Apis mellifera, UniProt A0A7M7LMV1); test: Activity of recombinant CYP9Q3 against fluorescent coumarin model substrates; assay type: biochemical, A. mellifera
T2 sequence (A0A7M7LMV1 entry or part of it, one chain of several): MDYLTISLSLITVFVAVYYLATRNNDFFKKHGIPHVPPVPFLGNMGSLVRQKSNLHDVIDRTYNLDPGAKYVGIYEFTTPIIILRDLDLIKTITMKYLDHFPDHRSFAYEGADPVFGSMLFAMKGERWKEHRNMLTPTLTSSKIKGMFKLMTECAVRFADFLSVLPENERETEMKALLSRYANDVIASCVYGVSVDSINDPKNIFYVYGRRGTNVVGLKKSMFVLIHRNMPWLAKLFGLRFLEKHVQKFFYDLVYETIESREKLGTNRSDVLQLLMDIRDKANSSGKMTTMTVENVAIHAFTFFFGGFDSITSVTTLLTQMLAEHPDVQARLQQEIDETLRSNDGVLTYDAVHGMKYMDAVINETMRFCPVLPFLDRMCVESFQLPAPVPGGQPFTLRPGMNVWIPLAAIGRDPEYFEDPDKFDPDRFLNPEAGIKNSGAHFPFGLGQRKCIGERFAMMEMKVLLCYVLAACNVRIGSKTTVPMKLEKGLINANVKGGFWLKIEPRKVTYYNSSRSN
Method: as §1, with “Three replicates were carried out for each data point. P450s incubated without NADPH and wells containing only potassium phosphate buffer served as controls. Samples were incubated at 25°C for 45 min (B. terrestris) or 30°C for 30 min (A. mellifera).” left out, “As these substrates have a similar emission wavelength to NADPH (460 nm) the reaction was terminated prior to measurement by the addition of 100μL of a stop solution (25% DMSO, 0.05 M Tris/HCL pH10, 5 mM glutathione oxidised, and 0.2 U glutathione reductase).” left out, “above.” for “above. 7-hydroxy-4-(trifluoromethyl)-coumarin (HFC) (Sigma) was used to generate a standard curve for model substrates BFC, EFC, MFC, MOBFC, and BOMFC and 7-hydroxycoumarin (HC) (Sigma) for model substrates EC and MC.”

CYP9Q5 [3] = test: Activity of recombinant CYP9Q5 against fluorescent coumarin model substrates; assay type: biochemical, B. terrestris
Method: as §1, with “Three replicates were carried out for each data point. P450s incubated without NADPH and wells containing only potassium phosphate buffer served as controls. Samples were incubated at 25°C for 45 min (B. terrestris) or 30°C for 30 min (A. mellifera).” left out, “As these substrates have a similar emission wavelength to NADPH (460 nm) the reaction was terminated prior to measurement by the addition of 100μL of a stop solution (25% DMSO, 0.05 M Tris/HCL pH10, 5 mM glutathione oxidised, and 0.2 U glutathione reductase).” left out, “above.” for “above. 7-hydroxy-4-(trifluoromethyl)-coumarin (HFC) (Sigma) was used to generate a standard curve for model substrates BFC, EFC, MFC, MOBFC, and BOMFC and 7-hydroxycoumarin (HC) (Sigma) for model substrates EC and MC.”

CYP9Q1 [4] = target: T3, CYP9Q1 (Apis mellifera, UniProt A0A7M7GTV9); test: Activity of recombinant CYP9Q1 against fluorescent coumarin model substrates; assay type: biochemical, A. mellifera
T3 sequence (A0A7M7GTV9 entry or part of it, one chain of several): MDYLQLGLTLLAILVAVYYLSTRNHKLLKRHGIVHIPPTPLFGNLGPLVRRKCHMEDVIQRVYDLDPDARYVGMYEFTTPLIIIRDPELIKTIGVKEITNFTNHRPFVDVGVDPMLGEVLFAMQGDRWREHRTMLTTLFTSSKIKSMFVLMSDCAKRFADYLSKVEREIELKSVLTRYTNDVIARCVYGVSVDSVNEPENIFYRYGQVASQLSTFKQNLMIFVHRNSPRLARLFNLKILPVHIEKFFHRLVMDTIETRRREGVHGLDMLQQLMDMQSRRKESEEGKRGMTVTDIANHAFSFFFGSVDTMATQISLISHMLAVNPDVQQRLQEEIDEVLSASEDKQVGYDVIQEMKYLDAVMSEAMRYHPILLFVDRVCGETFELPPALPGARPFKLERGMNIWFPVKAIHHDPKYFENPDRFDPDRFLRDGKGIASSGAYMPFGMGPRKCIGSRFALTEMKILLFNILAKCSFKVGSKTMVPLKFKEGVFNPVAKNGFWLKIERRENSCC
Method: as §1, with “Three replicates were carried out for each data point. P450s incubated without NADPH and wells containing only potassium phosphate buffer served as controls. Samples were incubated at 25°C for 45 min (B. terrestris) or 30°C for 30 min (A. mellifera).” left out, “As these substrates have a similar emission wavelength to NADPH (460 nm) the reaction was terminated prior to measurement by the addition of 100μL of a stop solution (25% DMSO, 0.05 M Tris/HCL pH10, 5 mM glutathione oxidised, and 0.2 U glutathione reductase).” left out, “above.” for “above. 7-hydroxy-4-(trifluoromethyl)-coumarin (HFC) (Sigma) was used to generate a standard curve for model substrates BFC, EFC, MFC, MOBFC, and BOMFC and 7-hydroxycoumarin (HC) (Sigma) for model substrates EC and MC.”

CYP9Q4 [5] = target: T1, CYP9Q4; test: Metabolism by recombinant CYP9Q4/CPR microsomes, LC-MS/MS; conditions: hydroxylation (thiacloprid) or N-desmethylation (acetamiprid)
Excerpt: (§2) All bee P450 (see Table S3 for accession numbers) and house fly NADPH-dependent cytochrome P450 reductase (CPR) (GenBank accession number Q07994) genes were obtained by gene synthesis (Geneart, CA, USA) and inserted into the pDEST8 expression vector (Invitrogen). Codon optimization of all bee genes was used to optimize expression in lepidopteran cell lines. The PFastbac1 vector with no inserted DNA was used to produce a control virus. The recombinant baculovirus DNA was constructed and transfected into Trichoplusia ni (High five cells, Thermo Fisher) using the Bac-to-Bac baculovirus expression system (Invitrogen) according to the manufacturer’s instructions. The titer of the recombinant virus was determined following protocols of the supplier. High Five cells grown to a density of 2 × 10^6 cells ml^-1 were co-infected with recombinant baculoviruses containing each bee P450 and CPR with a range of MOI (multiplicity of infection) ratios to identify the optimal conditions. Control cells were co-infected with the baculovirus containing vector with no insert (ctrl-virus) and the recombinant baculovirus expressing CPR using the same MOI ratios. Ferric citrate and δ-aminolevulinic acid hydrochloride were added to a final concentration of 0.1 mM at the time of infection and 24 h after infection to compensate the low levels of endogenous heme in the insect cells. After 48 h, cells were harvested, washed with PBS, and microsomes of the membrane fraction prepared according to standard procedures and stored at −80°C [31]. Briefly, pellets were homogenized for 30 s in 0.1M Na/K-phosphate buffer, pH 7.4 containing 1mM EDTA and DTT and 200mM sucrose using a Fastprep (MP Biomedicals), filtered through miracloth and centrifuging for 10 min at 680 g at 4°C. The supernatant was then centrifuged for 1 h at 100,000 g at 4°C, with the pellet subsequently resuspended in 0.1M Na/K-phosphate buffer, pH 7.6 containing 1mM EDTA and DTT and 10% glycerol using a Dounce tissue grinder. P450 expression and functionality was estimated by measuring CO-difference spectra in reduced samples using a Specord 200 Plus Spectrophotometer (Analytik Jena) and scanning from 500 nm to 400 nm. The protein content of samples was determined using Bradford reagent (Sigma) and bovine serum albumin (BSA) as a reference.
(§3) The total assay volume was 200 μL using three replicates for each data point. […] The assay was stopped by the addition of ice-cold acetonitrile (to 80% final concentration), centrifuged for 10 min at 3000 g and the supernatant subsequently analyzed by tandem mass spectrometry as described previously. […] Substrate turnover from two independent reactions were plotted versus controls and Michaelis-Menten kinetics determined using GraphPad Prism version 7 (GraphPad Software, CA, USA).

CYP9Q1 [6] = target: T3, CYP9Q1; test: in vitro; conditions: hydroxylation (thiacloprid, imidacloprid) or N-desmethylation (acetamiprid)
Excerpt: as §2
(§4) The total assay volume was 200 μL using three replicates for each data point. Microsomes incubated without NADPH served as a control. The assay was stopped by the addition of ice-cold acetonitrile (to 80% final concentration), centrifuged for 10 min at 3000 g and the supernatant subsequently analyzed by tandem mass spectrometry as described previously. For the chromatography on a Waters Acquity HSS T3 column (2.1x50mm, 1.8μm), acetonitrile/water/0.1% formic acid was used as the eluent in gradient mode. […] The peak integrals were calibrated externally against a standard calibration curve. […] Substrate turnover from two independent reactions were plotted versus controls and Michaelis-Menten kinetics determined using GraphPad Prism version 7 (GraphPad Software, CA, USA).

CYP9Q2 = target: T4, CYP9Q2 (Apis mellifera, UniProt A0A7M7R6F2); test: in vitro; conditions: hydroxylation (thiacloprid, imidacloprid) or N-desmethylation (acetamiprid)
T4 sequence (A0A7M7R6F2 1-532): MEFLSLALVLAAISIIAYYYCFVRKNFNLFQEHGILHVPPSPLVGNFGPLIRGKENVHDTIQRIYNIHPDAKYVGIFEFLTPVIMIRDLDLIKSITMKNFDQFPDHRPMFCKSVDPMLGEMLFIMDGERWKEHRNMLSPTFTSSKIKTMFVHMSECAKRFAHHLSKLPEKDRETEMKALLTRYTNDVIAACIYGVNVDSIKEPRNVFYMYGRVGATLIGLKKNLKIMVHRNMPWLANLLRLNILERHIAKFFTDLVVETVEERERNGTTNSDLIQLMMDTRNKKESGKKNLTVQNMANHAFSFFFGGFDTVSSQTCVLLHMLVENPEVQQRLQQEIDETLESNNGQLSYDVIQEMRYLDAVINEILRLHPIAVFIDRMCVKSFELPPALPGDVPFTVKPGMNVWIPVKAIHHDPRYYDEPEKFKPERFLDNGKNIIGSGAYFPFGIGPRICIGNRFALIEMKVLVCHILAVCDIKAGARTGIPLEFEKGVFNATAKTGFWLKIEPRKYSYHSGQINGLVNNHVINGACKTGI
T4 sequence (Q07994 1-671 partner): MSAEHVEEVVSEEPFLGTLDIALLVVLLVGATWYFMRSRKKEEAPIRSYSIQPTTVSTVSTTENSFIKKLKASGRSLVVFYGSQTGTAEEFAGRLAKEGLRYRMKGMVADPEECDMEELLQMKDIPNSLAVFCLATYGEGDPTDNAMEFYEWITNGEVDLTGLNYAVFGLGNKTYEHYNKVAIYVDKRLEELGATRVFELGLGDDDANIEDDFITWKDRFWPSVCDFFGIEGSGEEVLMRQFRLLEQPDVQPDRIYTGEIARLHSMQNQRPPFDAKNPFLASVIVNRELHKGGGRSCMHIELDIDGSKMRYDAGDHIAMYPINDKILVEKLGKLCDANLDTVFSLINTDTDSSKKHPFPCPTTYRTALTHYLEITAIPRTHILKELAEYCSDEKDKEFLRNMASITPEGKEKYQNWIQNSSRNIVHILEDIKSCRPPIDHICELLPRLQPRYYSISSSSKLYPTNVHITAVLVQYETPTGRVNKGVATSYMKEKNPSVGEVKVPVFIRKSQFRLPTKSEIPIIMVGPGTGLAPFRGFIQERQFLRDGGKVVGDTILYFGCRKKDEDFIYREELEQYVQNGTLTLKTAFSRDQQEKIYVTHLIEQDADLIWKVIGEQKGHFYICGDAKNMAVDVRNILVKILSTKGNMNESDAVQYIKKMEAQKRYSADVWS
Excerpt: as §2, §4

CYP9Q3 [7] = target: T2, CYP9Q3; test: in vitro; conditions: hydroxylation (thiacloprid, imidacloprid) or N-desmethylation (acetamiprid)
Excerpt: as §2, §4

CYP9Q5 [8] = test: Metabolism by recombinant CYP9Q5/CPR microsomes, LC-MS/MS; conditions: hydroxylation (thiacloprid) or N-desmethylation (acetamiprid)
Excerpt: as §2, §3

T1 sequence (A0A9B0BBT5 entry or part of it, one chain of several): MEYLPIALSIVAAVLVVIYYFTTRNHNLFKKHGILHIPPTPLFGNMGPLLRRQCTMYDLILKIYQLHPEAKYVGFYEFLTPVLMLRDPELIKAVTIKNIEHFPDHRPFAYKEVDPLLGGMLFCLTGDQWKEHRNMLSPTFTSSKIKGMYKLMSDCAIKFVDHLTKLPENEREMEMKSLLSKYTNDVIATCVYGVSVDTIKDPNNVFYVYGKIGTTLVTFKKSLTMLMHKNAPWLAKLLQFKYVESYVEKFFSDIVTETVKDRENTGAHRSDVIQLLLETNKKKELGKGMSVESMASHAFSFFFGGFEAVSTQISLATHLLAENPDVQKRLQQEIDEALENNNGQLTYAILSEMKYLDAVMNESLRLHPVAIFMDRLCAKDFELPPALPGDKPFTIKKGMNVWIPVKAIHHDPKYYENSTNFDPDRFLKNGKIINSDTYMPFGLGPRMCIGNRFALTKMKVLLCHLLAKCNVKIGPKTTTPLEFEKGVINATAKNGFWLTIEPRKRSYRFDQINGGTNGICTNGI

Compound: CCCC1COC(Cn2cncn2)(c2ccc(Cl)cc2Cl)O1 (stereo not shown) [propiconazole]
effect of P450 inhibitor on honeybee sensitivity to imidacloprid (honeybee; synergist plus imidacloprid): almost no effect
increase of honeybee sensitivity to thiacloprid by P450 inhibitor (honeybee; synergist plus thiacloprid): 559 fold

Compound: COc1ccc(COc2ccc3c(C(F)(F)F)cc(=O)oc3c2)cc1 [MOBFC, 7-p-methoxy-benzyloxy-4-trifluoro coumarin]
activity against fluorescent coumarin model substrate (in words) (CYP9Q4 [1]): activity

Compound: O=c1cc(C(F)(F)F)c2ccc(OCc3ccccc3)cc2o1 [BFC, 7-benzyloxy-4-trifluoromethyl coumarin]
activity against fluorescent coumarin model substrate (in words) (CYP9Q3 [2]): highest specific activity
activity against fluorescent coumarin model substrate (in words) (CYP9Q4 [1]): no activity
activity against fluorescent coumarin model substrate (in words) (CYP9Q5 [3]): no activity
activity against fluorescent coumarin model substrate (in words) (CYP9Q1 [4]): highest specific activity

Compound: C/C(=N\C#N)N(C)Cc1ccc(Cl)nc1 [acetamiprid]
metabolism by the recombinant P450 (in words) (CYP9Q4 [5]): highest activity
metabolism by the recombinant P450 (in words) (CYP9Q1 [6]): capacity to metabolize
metabolism by the recombinant P450 (in words) (CYP9Q2): highest activity
metabolism by the recombinant P450 (in words) (CYP9Q3 [7]): highest activity
metabolism by the recombinant P450 (in words) (CYP9Q5 [8]): highest activity

activity against fluorescent coumarin model substrate (in words) (CYP9Q4 [1]): activity
Compound: COc1ccc2c(C(F)(F)F)cc(=O)oc2c1 [MFC, 7-methoxy-4-trifluoromethyl coumarin]
